Test results published in US10934303B2, “Aryl ethene derivative and pharmaceutical composition containing same as active ingredient” (priority 2016, dated 2021).
Like-named read-outs stand apart in the source and are kept apart here.

Assays:
[1] = target: GST-bound ERR gamma ligand-binding domain (LBD) (Homo sapiens (Human), UniProt P62508); assay: ERRγ binding assay (inverse agonist assay), TR-FRET; details: TR-FRET, PGC1a coactivator; read-out: Binding Assay, IC50 ERRγ
Description: 1) ERRγ Binding Assay (Inverse Agonist Assay)
(§2) The arylethene derivative of the present invention was sequentially added to a 384 well plate from a concentration of 10 μM to a final concentration of two-fold dilution. […] After all reagents were added, a reaction was carried out with gentle shaking at 20° C. for 1 hour, and after the reaction, a binding activity was measured by a TR-FRET method.

[2] = target: GST-bound ERR alpha LBD (Homo sapiens (Human), UniProt P11474); details: TR-FRET, PGC1a coactivator; read-out: Binding Assay, IC50 ERRα
Description: as §2

[3] = target: GST-bound ER alpha ligand-binding domain (LBD) (Homo sapiens (Human), UniProt P03372); assay: biochemical
Description: as §2

[4] = test system: ERRγ; type: cell-based
Description: AD293 was cultured in a 24-well plate for 24 hours, using a DMEM High glucose culture medium (Hyclone, USA) to which 0.5% FBS was added at a concentration of 9×10^4/well. The culture medium was replaced with a DMEM High glucose culture medium to which 10% FBS was added, treatment was performed with a mixture of a TransIT-LT1 transfection reagent (Mirus, USA) and pCMX-Gal4-ERRγ, pFR-luciferase reporter plasmid, pCMV-β-gal, and culturing was performed for 24 hours. Thereafter, a luciferase activity assay and a β-gal assay were performed, respectively, with a lysate obtained after treatment with the arylethene derivative of the present invention for 24 hours. All results were derived from three or more independent repetitive experiments.

[5] = target: hERG channel (Homo sapiens (Human), UniProt Q12809); details: read-out: hERG IC50; fluorescence polarization assay
[6] = target: CYP1A2 (Homo sapiens (Human), UniProt P05177); assay: Cytochrome P450 activity inhibition, CYP1A2; type: in vitro ADME; details: 10 μM, human liver microsomes, Phenacetin substrate
From the text: (§1) 1) Cytochrome P450 (CYP450) Activity Inhibition Evaluation

[7] = target: CYP2C9 (Homo sapiens (Human), UniProt P11712); assay: Cytochrome P450 activity inhibition, CYP2C9; type: in vitro ADME; details: 10 μM, human liver microsomes, Diclofenac substrate
From the text: as §1

[8] = target: CYP2C19 (Homo sapiens (Human), UniProt P33261); assay: Cytochrome P450 activity inhibition, CYP2C19; type: in vitro ADME; details: 10 μM, human liver microsomes, S-mephenytoin substrate
From the text: as §1

[9] = target: CYP2D6 (Homo sapiens (Human), UniProt P10635); assay: Cytochrome P450 activity inhibition, CYP2D6; type: in vitro ADME; details: 10 μM, human liver microsomes, Dextromethorphan substrate
From the text: as §1

[10] = target: CYP3A4 (Homo sapiens (Human), UniProt P08684); assay: Cytochrome P450 activity inhibition, CYP3A4; type: in vitro ADME; details: 10 μM, human liver microsomes, Midazolam substrate
From the text: as §1

[11] = in vitro; type: in vitro ADME; details: PBS pH 7.4, 25° C., 5 hours
Description: 3) Parallel Artificial Membrane Permeability Assay (PAMPA) Evaluation
PAMPA is a method which has been developed for testing cell membrane permeability of a material in a test tube, and has been performed using a lipid tri-layer PVDF membrane available from Corning Gentest (NY, US), the used reagents were all purchased from Sigma (MO, US). First, a test material is diluted in PBS (pH 7.4) to a final concentration of 10 mM, 300 mL of the solution is added to the bottom well of a 96-transwell equipped with a PVDF membrane, and 200 mL of PBS is added to the upper well. Then, a plate is reacted at 25° C. for 5 hours, 20 mL of the solution in each well is transferred to a new container, and 80 mL of acetonitrile containing an internal standard material (4 mM chloropropamide) is added thereto. A concentration of the material in the solution is analyzed using LC-MS/MS (ThermoFisher Scientific, MO, US), and the transmittance of the material is calculated according to the equation reported in the reference document.

[12] = in vivo; type: in vivo; details: rat; for Cmax: read-out: Cmax
Description: An oral administration group fasts the day before.
Blood of each animal is collected at 0 hour.
Into a tail vein of an intravenous administration group (IV), a drug is injected at a dose of 1 mg/kg (syringe).
To an oral administration group (PO), a drug is orally administered at a dose of 10 mg/kg (oral zondec)
After administration, blood of the intravenous administration group was collected through a jugular vein 8 times at 0.08, 0.25, 0.5, 1, 2, 4, 6, and 8 hours. One collected blood amount is 400 to 500 ul.
After administration, blood of the oral administration group was collected through a jugular vein 6 times at 0.25, 0.5, 1, 4, 6 and 8 hours. One collected blood amount is 400 to 500 ul.
Supernatant plasma is collected by a centrifuge.
The supernatant plasma was injected into a LC-MS/MS system and the drug is analyzed.

[13] = 1 μM, 30 minutes, 37° C., NADPH
Description: 2) Microsomal Stability Evaluation
(§3) Four liver microsomes (Human, Dog, Rat, Mouse 0.5 mg/ml) with a 0.1 M phosphate buffer solution (pH 7.4), and the arylethene derivative of the present invention were added to a concentration of 1 μM, culturing was performed at 37° C. for 5 minutes in advance, a NADPH regeneration system solution was added thereto, and culturing was performed at 37° C. for 30 minutes. Thereafter, in order to complete the reaction, an acetonitrile solution containing an internal standard material (chlorpropamide) was added thereto, centrifugation (14,000 rpm, 4° C.) was performed for 5 minutes, and a supernatant was injected into a LC-MS/MS system to analyze the substrate drug, thereby evaluating metabolism stability to the arylethene derivative of the present invention.

[14] = 1 μM, 30 minutes, 37° C., NADPH; remark: listed apart in the source
Description: 2) Microsomal Stability Evaluation
as §3

[15] = 1 μM, 30 minutes, 37° C., NADPH; remark: listed apart in the source
Description: 2) Microsomal Stability Evaluation
as §3

[16] = target: ERRβ (Homo sapiens, UniProt O95718); details: TR-FRET, PGC1a coactivator; read-out: Binding Assay, IC50 ERRβ
Description: as §2

[17] = 1 μM, 30 minutes, 37° C., NADPH; remark: listed apart in the source
Description: 2) Microsomal Stability Evaluation
as §3

[18] = TR-FRET, beta-estradiol 4 nM as agonist, read-out: Binding Assay, IC50 ERα
[19] = activity relative to reference compound GSK5182, 10 μM

Sequence of CYP3A4 (P08684 whole entry): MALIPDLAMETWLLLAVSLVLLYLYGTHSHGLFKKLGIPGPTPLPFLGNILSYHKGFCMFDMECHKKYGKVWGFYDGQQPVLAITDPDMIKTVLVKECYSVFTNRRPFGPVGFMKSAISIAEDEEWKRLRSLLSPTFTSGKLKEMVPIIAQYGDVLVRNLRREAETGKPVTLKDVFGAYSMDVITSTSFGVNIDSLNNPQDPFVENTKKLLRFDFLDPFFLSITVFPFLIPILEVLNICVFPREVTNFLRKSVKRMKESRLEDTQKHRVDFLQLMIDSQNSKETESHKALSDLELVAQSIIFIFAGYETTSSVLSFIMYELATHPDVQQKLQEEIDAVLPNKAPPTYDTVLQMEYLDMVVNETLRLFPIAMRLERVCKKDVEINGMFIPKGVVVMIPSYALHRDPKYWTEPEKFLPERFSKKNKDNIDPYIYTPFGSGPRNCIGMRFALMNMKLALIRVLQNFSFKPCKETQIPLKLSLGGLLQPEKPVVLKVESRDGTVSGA
Sequence of GST-bound ER alpha ligand-binding domain (LBD) (P03372 whole entry, looked up, the tested form may be a part): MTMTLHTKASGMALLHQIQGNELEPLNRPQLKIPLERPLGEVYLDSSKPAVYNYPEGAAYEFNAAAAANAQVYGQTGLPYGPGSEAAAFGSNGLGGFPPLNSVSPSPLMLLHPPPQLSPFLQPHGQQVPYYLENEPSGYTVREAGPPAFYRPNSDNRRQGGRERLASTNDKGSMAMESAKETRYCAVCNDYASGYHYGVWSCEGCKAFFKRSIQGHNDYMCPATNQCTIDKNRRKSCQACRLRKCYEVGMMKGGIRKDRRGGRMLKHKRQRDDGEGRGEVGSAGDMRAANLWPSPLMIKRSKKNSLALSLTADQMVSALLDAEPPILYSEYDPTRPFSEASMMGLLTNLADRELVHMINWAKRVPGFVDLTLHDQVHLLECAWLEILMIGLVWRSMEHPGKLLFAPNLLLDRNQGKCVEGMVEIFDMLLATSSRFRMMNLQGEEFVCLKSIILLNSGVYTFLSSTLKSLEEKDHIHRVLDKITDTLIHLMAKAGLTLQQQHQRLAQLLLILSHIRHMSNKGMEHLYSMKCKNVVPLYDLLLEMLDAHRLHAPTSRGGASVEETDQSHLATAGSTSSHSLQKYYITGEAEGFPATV
Sequence of ERRβ (O95718 whole entry, looked up): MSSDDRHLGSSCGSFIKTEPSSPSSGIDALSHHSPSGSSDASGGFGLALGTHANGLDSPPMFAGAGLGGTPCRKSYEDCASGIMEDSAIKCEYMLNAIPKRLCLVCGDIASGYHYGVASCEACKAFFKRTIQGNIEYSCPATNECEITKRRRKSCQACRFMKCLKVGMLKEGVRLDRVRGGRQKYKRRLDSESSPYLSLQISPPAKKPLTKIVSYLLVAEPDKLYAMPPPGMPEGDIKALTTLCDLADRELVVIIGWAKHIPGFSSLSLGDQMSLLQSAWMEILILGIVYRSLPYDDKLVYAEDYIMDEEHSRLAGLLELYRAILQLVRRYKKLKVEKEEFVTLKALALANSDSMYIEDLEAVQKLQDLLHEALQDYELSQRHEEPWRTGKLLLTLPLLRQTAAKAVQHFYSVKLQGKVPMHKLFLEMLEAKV
Sequence of GST-bound ERR alpha LBD (P11474 193-421): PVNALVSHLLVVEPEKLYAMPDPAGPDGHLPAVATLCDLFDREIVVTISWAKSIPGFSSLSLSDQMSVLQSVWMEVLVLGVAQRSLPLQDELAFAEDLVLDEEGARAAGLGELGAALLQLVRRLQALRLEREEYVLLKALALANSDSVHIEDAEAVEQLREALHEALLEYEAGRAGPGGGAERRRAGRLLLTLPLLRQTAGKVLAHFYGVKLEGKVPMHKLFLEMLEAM
Sequence of GST-bound ERR gamma ligand-binding domain (LBD) (P62508 233-457): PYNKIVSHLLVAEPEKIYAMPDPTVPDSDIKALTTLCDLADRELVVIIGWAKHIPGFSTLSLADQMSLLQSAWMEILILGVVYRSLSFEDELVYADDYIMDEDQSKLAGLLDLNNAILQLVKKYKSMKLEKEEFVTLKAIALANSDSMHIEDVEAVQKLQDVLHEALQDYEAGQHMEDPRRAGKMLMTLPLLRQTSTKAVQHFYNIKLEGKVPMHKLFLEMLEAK
Sequence of CYP2C19 (P33261 whole entry): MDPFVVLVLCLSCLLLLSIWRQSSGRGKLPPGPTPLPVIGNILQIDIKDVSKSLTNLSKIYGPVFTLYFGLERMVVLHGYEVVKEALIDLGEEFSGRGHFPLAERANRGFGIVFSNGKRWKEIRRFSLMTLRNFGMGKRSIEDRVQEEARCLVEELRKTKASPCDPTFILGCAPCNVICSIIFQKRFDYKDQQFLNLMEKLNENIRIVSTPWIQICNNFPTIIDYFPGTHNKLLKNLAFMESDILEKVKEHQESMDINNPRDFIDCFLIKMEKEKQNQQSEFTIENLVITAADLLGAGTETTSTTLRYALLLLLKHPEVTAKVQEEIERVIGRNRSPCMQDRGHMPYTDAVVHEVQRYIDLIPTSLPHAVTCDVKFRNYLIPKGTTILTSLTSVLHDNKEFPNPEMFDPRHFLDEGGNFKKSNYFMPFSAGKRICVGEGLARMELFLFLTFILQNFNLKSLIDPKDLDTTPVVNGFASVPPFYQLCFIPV
Sequence of CYP1A2 (P05177 whole entry): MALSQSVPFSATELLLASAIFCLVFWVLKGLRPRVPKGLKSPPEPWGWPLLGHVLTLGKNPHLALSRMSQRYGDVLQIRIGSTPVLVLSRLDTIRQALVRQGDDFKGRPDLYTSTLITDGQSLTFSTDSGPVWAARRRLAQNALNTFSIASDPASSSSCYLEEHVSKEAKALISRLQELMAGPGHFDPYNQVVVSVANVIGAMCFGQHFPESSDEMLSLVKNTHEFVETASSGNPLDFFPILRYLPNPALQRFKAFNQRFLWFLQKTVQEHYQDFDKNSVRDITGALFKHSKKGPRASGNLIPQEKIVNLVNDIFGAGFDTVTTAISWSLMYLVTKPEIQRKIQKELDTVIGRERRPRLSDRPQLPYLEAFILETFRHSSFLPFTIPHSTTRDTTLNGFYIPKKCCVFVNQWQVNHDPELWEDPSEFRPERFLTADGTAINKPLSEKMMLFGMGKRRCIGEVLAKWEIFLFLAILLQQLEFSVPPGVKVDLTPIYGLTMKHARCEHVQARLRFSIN
Sequence of CYP2C9 (P11712 whole entry): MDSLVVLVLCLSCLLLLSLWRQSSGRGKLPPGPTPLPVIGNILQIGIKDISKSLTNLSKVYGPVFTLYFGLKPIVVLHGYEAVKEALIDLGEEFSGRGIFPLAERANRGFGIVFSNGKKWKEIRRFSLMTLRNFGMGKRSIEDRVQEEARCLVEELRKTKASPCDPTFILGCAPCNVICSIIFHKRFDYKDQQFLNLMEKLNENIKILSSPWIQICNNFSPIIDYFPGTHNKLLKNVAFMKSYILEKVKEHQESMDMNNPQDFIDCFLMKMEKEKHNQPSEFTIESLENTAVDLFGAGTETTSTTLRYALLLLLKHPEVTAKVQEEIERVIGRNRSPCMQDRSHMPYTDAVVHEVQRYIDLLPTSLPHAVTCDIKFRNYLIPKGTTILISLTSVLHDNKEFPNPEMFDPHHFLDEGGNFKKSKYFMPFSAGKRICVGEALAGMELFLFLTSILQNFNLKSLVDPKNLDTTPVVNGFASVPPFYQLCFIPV
Sequence of CYP2D6 (P10635 whole entry): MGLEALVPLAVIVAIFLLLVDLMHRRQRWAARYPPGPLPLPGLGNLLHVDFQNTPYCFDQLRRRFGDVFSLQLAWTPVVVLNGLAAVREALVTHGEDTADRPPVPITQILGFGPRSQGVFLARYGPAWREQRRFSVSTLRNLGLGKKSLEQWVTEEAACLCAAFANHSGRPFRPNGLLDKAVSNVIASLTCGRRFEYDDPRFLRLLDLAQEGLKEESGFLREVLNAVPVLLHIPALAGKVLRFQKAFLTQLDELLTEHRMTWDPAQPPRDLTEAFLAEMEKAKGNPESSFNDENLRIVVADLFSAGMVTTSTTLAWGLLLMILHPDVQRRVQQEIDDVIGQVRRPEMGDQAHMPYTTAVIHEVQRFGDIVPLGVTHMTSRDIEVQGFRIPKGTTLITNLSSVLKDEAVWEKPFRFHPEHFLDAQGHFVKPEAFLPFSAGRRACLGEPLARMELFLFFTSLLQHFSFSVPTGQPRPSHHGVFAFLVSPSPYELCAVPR

SMILES	IC50 [2]	IC50 [3, 18]	Functional Assay at 10 μM (% of control), Cpds ([4]; 10 μM, 24 hours, AD293)	Functional Assay, Cpds/Ref 5182 [4, 19]	IC50 [5]	CYP inhibition (% of control) 1A2 [6]	CYP inhibition (% of control) 2C9 [7]	CYP inhibition (% of control) 2C19 [8]	CYP inhibition (% of control) 2D6 [9]	CYP inhibition (% of control) 3A4 [10]	Permeability Pampa [11]	MS(Microsomal Stability) (%) human [13]	MS(Microsomal Stability) (%) rat [14]	MS(Microsomal Stability) (%) mouse [15]	IC50 [16]	MS(Microsomal Stability) (%) dog [17]	further results
CN1CCCC1CCOc1ccc(/C(=C(/CCCO)c2ccccc2)c2ccc(O)cc2)cc1 (centres unmarked) [Compound 6g]	> 10 µM	0.331 µM	4.94 % of control	1.60	5.4 µM												IC50 [1]: 0.03 µM
CN1CCC[C@H]1COc1ccc(/C(=C(/CCCO)c2ccccc2)c2ccc(O)cc2)cc1 [Compound 6h]					18 µM												IC50 [3]: 1.1 µM; Functional Assay at 10 μM (% of control), Cpds [4]: 5.49 % of control; Functional Assay, Cpds/Ref 5182 [4]: 1.78
Cc1ccc(/C(=C(\CCCO)c2ccccc2)c2ccc(N3CCN(C(C)C)CC3)cc2)cc1 [Compound 18b]	> 10 µM	> 10 µM	2.45 % of control	0.78	> 30 µM	89.8 % of control	73.4 % of control	69.7 % of control	68.9 % of control	53 % of control	2.09 10^−6 cm/s	54.2%	40.0%	19.7%			AUCINF ([12]; IV, 1 mg/kg): 0.64 μMh; AUCall ([12]; IV, 1 mg/kg): 0.58 μMh; Vss ([12]; IV, 1 mg/kg): 9.8 L/kg; t1/2 ([12]; IV, 1 mg/kg): 3.1 h; AUCINF ([12]; PO, 10 mg/kg): 0.36 μMh; AUCall ([12]; PO, 10 mg/kg): 0.31 μMh; BA ([12]; PO, 10 mg/kg): 8.7%; Tmax ([12]; PO, 10 mg/kg): 0.6 h; Cmax ([12]; PO, 10 mg/kg): 0.12 µM
CN1CCN(c2ccc(/C(=C(/CCCO)c3ccccc3)c3ccc(O)cc3)cc2)CC1 [Compound 18d]	> 10 µM	1.7 µM	9.65 % of control	0.97	> 20 µM	88 % of control	67.7 % of control	81.2 % of control	98.4 % of control	64 % of control	0.14 10^−6 cm/s						
Cc1ccc(/C(=C(\CCCO)c2ccccc2)c2ccc(N3CCN(C)CC3)cc2)cc1 [Compound 18f]	> 10 µM	> 10 µM	2.57 % of control	0.82	18.9 µM	>100 % of control	62.3 % of control	72.8 % of control	68.2 % of control	70.9 % of control	4.84 10^−6 cm/s	79.2%	65.7%	47.6%			AUCINF ([12]; IV, 1 mg/kg): 0.29 μMh; AUCall ([12]; IV, 1 mg/kg): 0.28 μMh; Vss ([12]; IV, 1 mg/kg): 30.3 L/kg; t1/2 ([12]; IV, 1 mg/kg): 2.5 h; AUCINF ([12]; PO, 10 mg/kg): 7.00 μMh; AUCall ([12]; PO, 10 mg/kg): 2.93 μMh; BA ([12]; PO, 10 mg/kg): 41.2%; Tmax ([12]; PO, 10 mg/kg): 2.4 h; Cmax ([12]; PO, 10 mg/kg): 0.45 µM
CCN1CCN(c2ccc(/C(=C(/CCCO)c3ccccc3)c3ccc(O)cc3)cc2)CC1 [Compound 18i]	> 10 µM	1.14 µM	1.88 % of control	0.97	> 30 µM						1.16 10^−6 cm/s						IC50 [1]: 0.05 µM
CC(C)(C)OC(=O)N1CCN(c2ccc(/C(=C(/CCCO)c3ccccc3)c3ccc(Br)cc3)cc2)CC1 [Compound 18n]	8.25 µM	8.8 µM	3.36 % of control	0.82							0.63 10^−6 cm/s				1.09 µM		
Cc1ccc(/C(=C(\CCCO)c2ccccc2)c2ccc(N3CCNCC3)cc2)cc1 [Compound 20b]	> 10 µM	> 10 µM	3.58 % of control	0.88							3.61 10^−6 cm/s	44%	71.5%	28.8%	2.1 µM	58%	
OCCC/C(=C(\c1ccc(O)cc1)c1ccc(N2CCNCC2)cc1)c1ccccc1 [Compound 20j]	> 10 µM	0.992 µM	1.41 % of control	1.38		93.6 % of control	77.1 % of control	62 % of control	89.3 % of control	66.2 % of control		76.8%	84.5%	25.3%	4.93 µM	68.3%	
CC(C)N1CCC(c2ccc(/C(=C(/CCCO)c3ccccc3)c3ccc(O)cc3)cc2)CC1 [Compound 22g]	> 10 µM	4.37 µM			22 µM							42.8%	43.2%	10.7%		54.3%	
CC(C)N1CCC(c2ccc(/C(=C(/CCCO)c3ccccc3)c3cccc(O)c3)cc2)CC1 [Compound 22m]	> 10 µM	> 10 µM				97 % of control	80.3 % of control	>100 % of control	70.7 % of control	58.1 % of control		55.3%	53.5%	24.2%	7.82 µM	55.0%	AUCINF ([12]; IV, 1 mg/kg): 0.00 μMh; AUCall ([12]; IV, 1 mg/kg): 0.34 μMh; Vss ([12]; IV, 1 mg/kg): 19.9 L/kg; t1/2 ([12]; IV, 1 mg/kg): 2.4 h; AUCINF ([12]; PO, 10 mg/kg): 0.00 μMh; AUCall ([12]; PO, 10 mg/kg): 0.73 μMh; BA ([12]; PO, 10 mg/kg): 24.3%; Tmax ([12]; PO, 10 mg/kg): 2.4 h; t1/2 ([12]; PO, 10 mg/kg): 4.3 h; Cmax ([12]; PO, 10 mg/kg): 0.13 µM
OCCC/C(=C(/c1ccc(C2CCN(C3CC3)CC2)cc1)c1cccc(O)c1)c1ccccc1 [Compound 22r]					16.4 µM	>100 % of control	>100 % of control	>100 % of control	91.8 % of control	82.7 % of control		62.0%	49.9%	24.5%		56.9%	AUCINF ([12]; IV, 1 mg/kg): 0.87 μMh; AUCall ([12]; IV, 1 mg/kg): 0.85 μMh; Vss ([12]; IV, 1 mg/kg): 4.6 L/kg; t1/2 ([12]; IV, 1 mg/kg): 1.8 h; AUCINF ([12]; PO, 10 mg/kg): 5.29 μMh; AUCall ([12]; PO, 10 mg/kg): 4.93 μMh; BA ([12]; PO, 10 mg/kg): 58.2%; Tmax ([12]; PO, 10 mg/kg): 1 h; t1/2 ([12]; PO, 10 mg/kg): 2.3 h; Cmax ([12]; PO, 10 mg/kg): 1.51 µM
OCCC/C(=C(\c1ccc(O)cc1)c1ccc(C2CCN(C3CC3)C2)cc1)c1ccccc1 (centres unmarked) [Compound 22t]	> 10 µM	5.94 µM	6.19 % of control												3.56 µM		
OCCC/C(=C(\c1ccc(O)cc1)c1ccc(OCCN2C[C@H]3C[C@H]3[C@H]2CO)cc1)c1ccccc1 [Compound 38d]		0.276 µM	3.16 % of control	0.77		79.2 % of control	55.3 % of control	58.8 % of control	54.3 % of control	57.6 % of control		6.9%	11.7%	11.8%	8.8 µM		IC50 [1]: 0.083 µM
